Reference: EPA's ToxValDB 9.5 (doi:10.2903/j.efsa.2016.4421)

Assays:
Aphidius rhopalosiphi = experiment: LR50; higher = less toxic; conditions: not reported, mortality
Lepomis macrochirus = conditions: acute; duration: 96 hours; mortality
Apis mellifera = conditions: acute, mortality
Folsomia candida = conditions: chronic/long-term; reproduction
Hypoaspis aculeifer = conditions: chronic/long-term; reproduction
Daphnia magna = conditions: chronic/long-term; duration: 21 days; growth
Oryctolagus sp. = conditions: reproduction developmental
Oncorhynchus mykiss = conditions: acute; duration: 96 hours; mortality
Anas platyrhynchos = conditions: acute; oral; unspecified; mortality

For `COc1cc(OC)nc(NC(=O)NS(=O)(=O)c2cc(NC=O)ccc2C(=O)N(C)C)n1` [Foramsulfuron], the LR50 (Aphidius rhopalosiphi; duration: 7 days) was over 60 g/ha, the LR50 (Aphidius rhopalosiphi) was over 5.6 g/ha and the LC50 (Lepomis macrochirus) was over 100 µg/mL. The LD50 (Apis mellifera; dermal) was over 4.66 µg/piece, the LD50 (Apis mellifera; duration: 48 hours, oral, unspecified) was over 5 µg/piece and the NOEC (Folsomia candida) was 100 mg/kg. It also gave an NOEC (Hypoaspis aculeifer) of 1000 mg/kg, an LD50 (Rattus norvegicus; acute, oral, mortality) of over 5000 mg/kg and an NOEL (Rattus norvegicus; reproduction developmental, F, reproduction) of 1430 mg/kg-day. The NOAEL (Rattus norvegicus; reproduction developmental, duration: 2 years, reproduction) was 25 mg/kg-day, the NOEC (Daphnia magna) was 100 mg/L and the NOAEL (Oryctolagus sp.; body weight) was 50 mg/kg-day. The NOEL (Oryctolagus sp.; no effects) was 500 mg/kg-day, the LC50 (Oncorhynchus mykiss) was over 100 µg/mL and the LD50 (Colinus virginianus; acute, oral, mortality) was over 2000 mg/kg. For the same compound, the NOEL (Colinus virginianus; reproduction developmental) was 104 mg/kg-day and the LD50 (Anas platyrhynchos) was over 2000 mg/kg.
